# Test results taken from patent US10363239B2, “Method for inhibiting growth of cancer cells” (Pain Therapeutics, Inc., priority 2013, dated 2019).
# Experiments:
# Format in all cases: cell-based, human
# [1] = system: metastatic (liver) neuroendocrine tumor cells; assay: Cell proliferation by Ki67 and PCNA (Western blotting); conditions: 1 nM; 4 days
# [2] = system: GTP-bound K-ras in glioblastoma cell line (U87); assay: Active K-ras (GTP-bound K-ras) Raf1 RBD pull-down assay; conditions: 0.1, 0.5, 1 and 5 nM; 4-day treatment
# Procedure: (§1) FIGS. 31A and 31B illustrate the effects of illustrative Compound C0105 on levels of active K-ras (GTP-bound K-ras), assessed using the agarose bead-bound Raf1 RBD pull-down assay in melanoma, two different pancreatic cancerous cell lines (MiaPaCa2 and BxPc3) and a glioblastoma cell line (U87). The cells were treated (contacted) with zero (vehicle), 0.1, 0.5, 1 and 5 nM Compound C0105 as previously discussed. The thus obtained GTP-bound K-ras was subjected to Western blotting using anti-ras antibodies for identification, the blot densities determined and statistically analyzed as discussed previously.
# (§2) In a separate series of studies, the level of active K-RAS (GTP-bound K-RAS) was determined by precipitation using Raf RBD-conjugated agarose beads from 100 μg of lysates of cancer cells (prepared as described above) following 4-day treatment with varying concentrations of Compound C0105. To ascertain even loading, actin in the cell lysates was immunoprecipitated with goat anti-actin. The precipitates were collected by centrifugation, washed and the active K-RAS and actin eluted by boiling for 5 min in 1×SDS-PAGE. The levels of active K-RAS and actin in 50 μg of cell lysates were size-fractionated on 12% SDS-PAGE, electrophorectically transferred to nitrocellulose membranes and determined by Western blotting with specific monoclonal antibodies against K-RAS and actin.
# [3] = system: GTP-bound K-ras in MiaPaCa2 cells; assay: as above; conditions: 0.1, 0.5, 1 and 5 nM; 4-day treatment
# Procedure: as §1, §2
# [4] = system: GTP-bound K-ras in melanoma cells; assay: as above; conditions: 0.1, 0.5, 1 and 5 nM; 4-day treatment
# Procedure: as §1, §2
# [5] = system: GTP-bound K-ras in BxPc3 cells; assay: as above; conditions: 0.1, 0.5, 1 and 5 nM; 4-day treatment
# Procedure: as §1, §2
# melanoma cells = assay: Cell proliferation by cell-cycling markers Ki67 and PCNA (Western blots); conditions: 0.1-5 nM; 4 days
# Procedure: The effect of contact with Compound C0105 on cell proliferation was determined by the levels of cell-cycling markers: Ki67 and PCNA (proliferating cell nuclear antigen) using Western blots in human melanoma cells. Cells treated with vehicle and 0.1-5 nM C0105 for 4 days were collected, washed and solubilized (lysed). The resultant cell lysates were size-fractionated on SDS-PAGE and Western blotting to determine the levels of Ki67, PCNA and actin (loading control). The protein bands were quantified using densitometric scanning. […] N=4. *p<0.01 compared to vehicle (open bars).
# To study the effect of Compound C0105 on PI3K activity, the cancer and primary normal cells were cultured to approximately 60-70% confluency, serum deprived for 4 hours, briefly washed with PBS and treated with vehicle or 0.1, 0.5, 1 or 5 nM Compound C0105 for 24 hours with in 0.1% FBS-containing culture medium. The cells were then washed with PBS, scraped off and collected by centrifugation. The cell pellets were sonicated in ice-cold immunoprecipitation buffer and protein concentrations measured by the Bradford method. […]
# Immunoreactivity was visualized by reaction in ECL Plus chemiluminescent reagent for exactly 5 minutes, followed by immediate exposure of the blot to X-ray film (Z & Z Medical). Bands at the relevant molecular masses of Ki67 and PCNA were quantified by densitometric scan. […]
# MiaPaCa2 cells = assay: Blocking of compound effects with FLNA decoy pentapeptide VAKGL or control peptide VAAGL; conditions: 4 days
# Procedure: FIGS. 32A-32D illustrate Western blots of pS^2152FLNA, Ras-GAP, PP2A-Aα/β, PTEN and FLNA in FIG. 32A and Ki67, PCNA and actin in FIG. 32C after four days of incubation (contact) of MiaPaCa2 cells in the presence of medium alone, or medium containing 1 nM Compound C0105 with and without the presence of 10 μM peptide VAAGL (SEQ ID NO: 2) or peptide VAKGL (SEQ ID NO: 1). Densitometric quantification of the Western blot results are shown in the graphs of FIG. 32B for the amounts of pS^2152FLNA, Ras-GAP, PP2A-Aα/β and PTEN in anti-FLNA immunoprecipitates and the amounts of Ki76 and PCNA (normalized by actin) in FIG. 32D. N=4, *p<0.01.
# To confirm that Compound C0105 effects are mediated by binding to FLNA pentapeptide VAKGL (SEQ ID NO: 1), cancer cells were incubated with vehicle or 1 nM Compound C0105 together with 10 μM of decoy pentapeptide (VAKGL) or control peptide, VAAGL (K-A decoy peptide; SEQ ID NO: 2) for 4 days as described previously.
# Cells were harvested by centrifugation and solubilized, and lysates were immunoprecipitated with anti-FLNA. Levels of pS^2152FLNA, PTEN, PP2A-Aα, PP2A-Aβ and Ras-GAP in the anti-FLNA immunoprecipitates were determined by Western blotting.
# A separate series of studies was undertaken to determine whether Compound C0105's reduction in proliferation markers is also mediated by Compound C0105 binding to the pentapeptide region of FLNA. As above, cancer cells were incubated for 4 days with vehicle or 1 nM Compound C0105 together with 10 μM of decoy pentapeptide (VAKGL; SEQ ID NO: 1) or control peptide, VAAGL (SEQ ID NO: 2).
# Cells were harvested by centrifugation and the resultant cell pellets were washed and sonicated in ice-cold immunoprecipitation buffer. Protein concentrations were measured by the Bradford method. […] Fifty μl of solubilized cell lysates were separated using SDS-PAGE, the protein bands electrophoretically transferred to nitrocellulose membranes and the level of cell proliferation was determined by Western blotting using the levels of Ki67 and PCNA as described previously.
smiles,measurement,setting,value
CN1CCC2(CC1)NCC(=O)N2Cc1ccccc1 [Compound C0105],Cell proliferation (Ki67 and PCNA levels),[1],Inhibits Proliferation
same,GTP-bound K-ras (active K-ras) level,[2],reduced GTP-bound K-ras
same,GTP-bound K-ras (active K-ras) level,[3],reduced GTP-bound K-ras
same,GTP-bound K-ras (active K-ras) level,[4],reduced GTP-bound K-ras
same,GTP-bound K-ras (active K-ras) level,[5],reduced GTP-bound K-ras
same,Cell proliferation (Ki67 and PCNA levels),melanoma cells,reduces cell proliferation
same,Effect on pS2152FLNA and FLNA associations when co-incubated with control peptide VAAGL,MiaPaCa2 cells; 1 nM compound + 10 μM VAAGL (SEQ ID NO: 2),did not disrupt Compound C0105 effects
same,Effect on pS2152FLNA and FLNA associations when co-incubated with VAKGL decoy pentapeptide,MiaPaCa2 cells; 1 nM compound + 10 μM VAKGL (SEQ ID NO: 1),"lost its effect on pS^2152FLNA hyperphosphorylation and on FLNA associations with ras-GAP, PTEN and PP2A"
same,"Reduction in cell proliferation (Ki67, PCNA) when co-incubated with VAKGL decoy pentapeptide",MiaPaCa2 cells; 1 nM compound + 10 μM VAKGL,disrupted Compound C0105's reduction in cell proliferation
